Patent publication US20260055077A1, “PROTEIN DEGRADATION AGENT” (SUZHOU KINTOR PHARMACEUTICALS, INC., priority 2022, published 2026)

Columns and labels:
Type in all cases: cell-based
[1] = tested on: HL60 cells; experiment: Anti-proliferation ability of compounds on HL60 cells (CellTiter-Glo); details: Homo sapiens, HL-60, 72 h, incubated 3 days, CTG luminescence, IC50 calculated by XLfit
Protocol: • I. Anti-proliferation ability of compounds on HL60 cells • Activity test methods: • 1. Cell plating • HL60 cells in the logarithmic growth phase were counted and plated evenly in a 96-well transparent bottom white plate at 20000 cells per well and […] per well. • 2. Drug addition to cells • A certain amount of the compounds was weighed and diluted with DMSO to a 10 mM stock solution. The culture mediums corresponding to the cells were taken, and the drugs were diluted to the concentration required by the test, shaken gently and mixed evenly. 50 μl of the gradient dilution of the diluted compound was added to each well of the plated cells, and 50 μl of 0.1% DMSO was added to the control group. The plate was shaken gently, mixed evenly and incubated in a cell culture incubator for 3 days. • 3. CTG detection • 3.1 The CellTiter-Glo™ (CTG) reagent was taken in advance from the −20° C. refrigerator and equilibrated to room temperature in the dark. • 3.2 The 96-well plate was taken out and inspected under a microscope for growth situation. • 3.3 The bottom of the 96-well plate was tagged with white paper, and then the plate was wrapped with tin foil paper, shaken at 37° C. at 300 r for 10 mina and mixed evenly. • 3.4 50 ul of CTG detection reagent was added to each well, Luminescence signal was detected using a microplate reader, and the inhibition rate was calculated. IC50 values of the compounds were calculated by XLfit software to evaluate the proliferation inhibitory activity on 11160 cells.

[2] = target: T1, c-Myc (Homo sapiens, UniProt P01106); experiment: Protein degradation experiment (Western blot), c-Myc in HL60 cells; details: 6 h of drug treatment, FIG. 1, at lower concentration (about 3 μm to 10 nmn)
T1 construct: endogenous in cells; host or cells: HL60 (human acute promyelocytic leukemia cells)
Protocol: (§1) Cell culture conditions: The cells in the embodiments of the invention were purchased from Shanghai Cell Bank, Chinese Academy of Sciences. Human acute promyelocytic leukemia cells (HL60 cells) were cultured in RPMI-1640 (meilunbio, MA0215)^+20% FBS(manufacturer: Bi, product number: 04-001-1ACS)^+1% penicillin/streptomycin (manufacturer: Hyclone, product number: SH40003.01). The cell culture conditions were 5% CO2 and […]. When the cell coverage reached about 80%, the cells were passaged at a ratio of 1:3.
(§2) 2. Cell drug treatment and protein extraction 2.1 Cell treatment
(§3) The designated cells in the exponential growth phase were digested and plated into a 6-well plate at 1 10^6 cells per well. […]
(§4) By using the BCA protein concentration determination kit (from Thermo Fisher, Cat. No. 23225), the BSA standard determination solution and the supernatant in 2.2 to be tested (the supernatant can be diluted and then tested) were prepared according to the table 2 below. […] The plate was placed at 60′C for 10 min, and then the absorbance at 562 nim was detected. After the reading was recorded, a standard curve was plotted using concentration gradients of the standards, and the absorbance of the samples was substituted to calculate the protein concentration of the samples. […]

[3] = target: T2, GSPT1 (Homo sapiens, UniProt P15170); experiment: Protein degradation experiment (Western blot), GSPT1 in HL60 cells; details: 6 h of drug treatment, FIG. 1, at lower concentration (about 3 μm to 10 nmn)
T2 construct: endogenous in cells; host or cells: HL60 (human acute promyelocytic leukemia cells)
Protocol: as §1, §2, §3, §4

T2 sequence (P15170 whole entry): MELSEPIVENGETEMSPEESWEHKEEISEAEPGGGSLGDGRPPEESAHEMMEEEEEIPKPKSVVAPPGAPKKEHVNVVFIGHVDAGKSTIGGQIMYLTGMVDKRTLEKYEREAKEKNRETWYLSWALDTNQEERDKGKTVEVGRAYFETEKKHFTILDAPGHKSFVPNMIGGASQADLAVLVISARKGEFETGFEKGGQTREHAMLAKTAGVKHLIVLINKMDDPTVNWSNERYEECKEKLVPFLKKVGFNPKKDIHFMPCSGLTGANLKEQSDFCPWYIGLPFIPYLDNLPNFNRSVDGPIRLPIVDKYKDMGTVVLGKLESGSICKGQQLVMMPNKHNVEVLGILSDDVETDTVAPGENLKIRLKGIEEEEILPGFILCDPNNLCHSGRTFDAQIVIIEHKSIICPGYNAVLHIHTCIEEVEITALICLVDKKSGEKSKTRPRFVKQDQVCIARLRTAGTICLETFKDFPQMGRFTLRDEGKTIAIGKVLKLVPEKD
T1 sequence (P01106 whole entry): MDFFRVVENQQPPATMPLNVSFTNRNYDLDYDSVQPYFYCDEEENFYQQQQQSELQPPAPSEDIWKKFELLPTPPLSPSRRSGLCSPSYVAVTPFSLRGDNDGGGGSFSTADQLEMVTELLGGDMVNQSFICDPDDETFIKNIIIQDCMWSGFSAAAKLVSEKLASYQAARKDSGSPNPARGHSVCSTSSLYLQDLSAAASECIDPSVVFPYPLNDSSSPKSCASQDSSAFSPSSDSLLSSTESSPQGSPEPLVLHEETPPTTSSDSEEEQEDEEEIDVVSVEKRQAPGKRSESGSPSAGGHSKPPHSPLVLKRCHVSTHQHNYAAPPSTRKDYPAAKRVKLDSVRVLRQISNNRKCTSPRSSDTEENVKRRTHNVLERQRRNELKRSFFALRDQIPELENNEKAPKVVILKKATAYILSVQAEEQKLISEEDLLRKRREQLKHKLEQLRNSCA

| IC50 [1] [nM] | degradation of e-Myc (c-Myc) protein in HL60 cells [2] | degradation of GSPT1 protein in HL60 cells [3] | SMILES |
| --- | --- | --- | --- |
| 2.8 ± 0.1 |  |  | O=C1CCC(N2Cc3cc(CNC(=O)c4ccc(CN5CCN(c6ccc(OCCO)c(Cl)c6)CC5)cc4)ccc3C2=O)C(=O)N1 (stereo not shown) [KT-019] |
| < 0.34 |  |  | O=C1CCC(N2Cc3cc(NC(=O)CC4CCN(c5ncc(-c6nccc7ccccc67)cc5CO)CC4)ccc3C2=O)C(=O)N1 (stereo not shown) [KT-030] |
| 1.36 ± 0.67 |  |  | Cc1ccc(N2CCN(Cc3ccc(C(=O)NCc4ccc5c(c4)CN(C4CCC(=O)NC4=O)C5=O)c(O)c3)CC2)cc1Cl (stereo not shown) [KT-020] |
| 9.9 ± 3 |  |  | CN(CCc1ccccc1)Cc1ccc(C(=O)NCc2ccc3c(c2)CN(C2CCC(=O)NC2=O)C3=O)c(O)c1 (stereo not shown) [KT-034] |
| < 3.04 |  |  | O=C1CCC(N2Cc3cc(C(=O)NCc4ccc(CNCCc5cccc6ccccc56)cc4)ccc3C2=O)C(=O)N1 (stereo not shown) [KT-025] |
| 0.57 ± 0.1 |  |  | NCc1cc(-c2cccc3cccnc23)cnc1N1CCC(CC(=O)Nc2ccc3c(c2)CN(C2CCC(=O)NC2=O)C3=O)CC1 (stereo not shown) [KT-029] |
| 6 ± 1.6 |  |  | O=C1CCC(N2Cc3cc(C(=O)NCc4ccc(CN(CCc5ccccc5)C(=O)CCO)cc4)ccc3C2=O)C(=O)N1 (stereo not shown) [KT-033] |
| 5620 |  |  | NCCOc1cc(-c2cccc3cccnc23)cnc1N1CCC(CC(=O)Nc2ccc3c(c2)CN(C2CCC(=O)NC2=O)C3=O)CC1 (stereo not shown) [KT-032] |
| 1.03 ± 0.19 |  |  | Cc1ccc(N2CCN(Cc3ccc(C(=O)NCc4ccc5c(c4)CN(C4CCC(=O)NC4=O)C5=O)cc3)C(CO)C2)cc1Cl (stereo not shown) [KT-022] |
| < 3.04 |  |  | CC(=O)c1ccc(N2CCN(Cc3ccc(C(=O)NCc4ccc5c(c4)CN(C4CCC(=O)NC4=O)C5=O)cc3)CC2)cc1Cl (stereo not shown) [KT-041] |
| 3.45 ± 0.52 |  |  | CN(Cc1ccc(C(=O)NCc2ccc3c(c2)CN(C2CCC(=O)NC2=O)C3=O)cc1)CC(O)c1ccccc1 (stereo not shown) [KT-013] |
| < 3.04 | completely degrade | completely degrade | O=C1CCC(N2Cc3cc(C(=O)NCc4ccc(CN(CCO)CCc5ccc(Cl)c(Cl)c5)cc4)ccc3C2=O)C(=O)N1 (stereo not shown) [KT-002] |
| 2.17 ± 0.78 |  |  | O=C1CCC(N2Cc3cc(CNC(=O)c4ccc(CN5CCN(c6ccc(CO)c(Cl)c6)CC5)cc4)ccc3C2=O)C(=O)N1 (stereo not shown) [KT-018] |
| 10.5 ± 0.4 |  |  | O=C1CCC(N2Cc3cc(CNC(=O)c4ccc(CN5CCN(c6ccc(O)c(Cl)c6)CC5)cc4)ccc3C2=O)C(=O)N1 (stereo not shown) [KT-017] |
| 34 ± 7 |  |  | O=C1CCC(N2Cc3cc(C(=O)NCc4ccc(CN(CCc5cccc6ccccc56)C(=O)CS)cc4)ccc3C2=O)C(=O)N1 (stereo not shown) [KT-042] |
| 2.19 ± 1.5 |  |  | O=C(Cn1c2ccccc2c2cccnc21)NCc1ccc(CNC(=O)c2ccc3c(c2)CN(C2CCC(=O)NC2=O)C3=O)c(OCCO)c1 (stereo not shown) [KT-006] |
| 3.04 ± 0.84 |  |  | O=C1CCC(N2Cc3cc(C(=O)NCc4ccc(CN(Cc5ccccc5)C(=O)CO)cc4)ccc3C2=O)C(=O)N1 (stereo not shown) [KT-016] |
| < 3.04 |  |  | O=C1CCC(N2Cc3cc(C(=O)NCc4ccc(CN(CCO)CCc5ccccc5)cc4)ccc3C2=O)C(=O)N1 (stereo not shown) [KT-001] |
| < 0.34 |  |  | O=C1CCC(N2Cc3cc(NC(=O)CC4CCN(c5ncc(-c6cccc7cccnc67)cc5CO)CC4)ccc3C2=O)C(=O)N1 (stereo not shown) [KT-028] |
| 23 ± 3 |  |  | O=C1CCC(N2Cc3cc(NC(=O)CC4CCN(c5ncc(Br)cc5CO)CC4)ccc3C2=O)C(=O)N1 (stereo not shown) [KT-026] |
| 0.71 ± 0.04 |  |  | O=C1CCC(N2Cc3cc(C(=O)NCc4ccc(CN(CCO)CCc5cccc6ccccc56)cc4)ccc3C2=O)C(=O)N1 (stereo not shown) [KT-003] |
| < 0.34 |  |  | O=C1CCC(N2Cc3cc(NC(=O)CC4CCN(c5ncc(-c6cccc7cccnc67)cc5OCCO)CC4)ccc3C2=O)C(=O)N1 (stereo not shown) [KT-031] |
| 24.2 ± 10.1 |  |  | O=C1CCC(N2Cc3cc(C(=O)NCc4ccc(CN(CCc5ccccc5)C(=O)NCCO)cc4)ccc3C2=O)C(=O)N1 (stereo not shown) [KT-015] |
